Assay results reported in patent US8673929B2, “4,6-di- and 2,4,6-trisubstituted quinazoline derivatives and pharmaceutical compositions useful for treating viral infections” (priority 2006, dated 2014).

What was measured:
HCV replicon = experiment: Anti-HCV replicon assay, EC50 (luciferase readout); assay type: cell-based; details: Hepatitis C virus, 72 h; Huh-7 HCV replicon cells, 3 days incubation, luciferase luminescence
Method: (§1) The anti HCV activity of the quinazoline derivatives of this invention was tested in a human hepatoma Huh-7 cell line harbouring a HCV replicon. The assay comprised the following steps:
(§2) Step 1: compound preparation and serial dilution • 1. for water soluble quinazoline derivatives, a volume of 500 μL of solution in cell media (DMEM, 10% FBS, P/S, L-Glutamine) was prepared with a concentration being twice the concentration of the starting final serial dilution concentration. A volume of 150 μL of the solution was added to the pre-specified wells in column 1 of a 96-well cell culture plate (PerkinElmer, white plate, cat. #6005181, for EC50 assay; black plate, cat. #6005182 for CC50 assay). The rest of the plate, columns 2-12, was filled with 100 μL of cell media. The plate was then placed on a Precision 2000 Workstation to start the serial dilution. Compounds were diluted three times each step from column 1 to column 10. Column 11 was used as a blank control (no compound added). • 2. for quinazoline derivatives requiring DMSO to dissolve, serial dilution is performed in 50% DMSO in a 384-well plate. A solution containing a compound at 100-fold concentration of the starting final serial dilution concentration was prepared in 50% DMSO and added to the pre-specified wells in column 1 of a polypropylene 384-well plate. The plate was then placed on a Precision 2000 Workstation to start the serial dilution. After the serial dilution, a volume of 2 μL of the solution was transferred from the 384-well plate to a 96-well cell culture plate containing 100 μL of cell media on a Biomek FX Workstation. The DMSO concentration in the final assay condition was 0.5% after cells are added to the plate and the total volume in each well is brought to 200 μL.
(§3) Step 2: to each well of the serial dilution plate prepared above, 100 μL of cell media containing 6000 suspended Huh-7 HCV replicon cells was added with a Multidrop workstation. The plates were incubated for 3 days at 37° C. with 5% CO2.
(§4) Step 3: detection: • a) for the EC50 assay, the media in a 96-well cell culture plate was aspirated with a Biotek EL405 plate-washer. A volume of 200 μL of a solution containing a 1:1 mixture of cell-lysis buffer (Promega, Luciferase Cell Culture Lysis 5× Reagent, cat. #E1531) and luciferase substrate solution (Promega, Luciferase Assay, cat.# E4550) was added to each well of the plate with Multidrop. The plate was incubated for 30 minutes at room temperature before the luminescence signal was measured with a TopCount plate-reader. • b) for the CC50 assay, a volume of 100 μL of pre-mixed CellTiter-Glo (Promega, cat.# G7572) solution is added directly to the cell culture in each well of the plate and the luminescence signal is measured with a TopCount plate-reader after 10 minutes of incubation at room temperature.
(§5) Results in the table below are expressed by the following data: • the 50% cytostatic concentration (CC50), i.e. the concentration that results in 50% inhibition of cell growth, and • the 50% effective concentration (EC50), i.e. the concentration that […].

[1] = CC50 assay in the anti-HCV replicon assay (CellTiter-Glo); assay type: cell-based, human; details: human, Huh-7 hepatoma cells harbouring an HCV replicon; Huh-7 HCV replicon cells, 3 days incubation, CellTiter-Glo luminescence
Method: as §1, §2, §3, §4, §5

| Compound | EC50 (HCV replicon) [nM] | CC50 at 3 days [1] [µM] |
| --- | --- | --- |
| CC(C)Oc1nc(N)nc2ccc(-c3ccc(Cl)cc3Cl)cc12 [Example 80, 6-(2,4-Dichloro-phenyl)-4-isopropoxy-quinazolin-2-ylamine] | 1000 to 10000 | > 20 |
| CC(C)Oc1nc(N)nc2ccc(-c3ccc(F)cc3Cl)cc12 [Example 81, 6-(2-Chloro-4-fluoro-phenyl)-4-isopropoxy-quinazolin-2-ylamine] | 1000 to 10000 | 10 to 20 |
| CC(C)Oc1nc(N)nc2ccc(-c3cccc(Cl)c3)cc12 [Example 82, 6-(3-Chloro-phenyl)-4-isopropoxy-quinazolin-2-ylamine] | 1000 to 10000 | > 20 |
| CC(C)Oc1nc(N)nc2ccc(-c3cc4ccccc4s3)cc12 [Example 83, 6-Benzo[b]thiophen-2-yl-4-isopropoxy-quinazolin-2-ylamine] | 1000 to 10000 | 10 to 20 |
| CC(C)Oc1nc(N)nc2ccc(-c3ccoc3)cc12 [Example 84, 6-Furan-3-yl-4-isopropoxy-quinazolin-2-ylamine] | 300 to 1000 | 10 to 20 |
| CC(C)Oc1nc(N)nc2ccc(-c3ccn[nH]3)cc12 [Example 85, 4-Isopropoxy-6-(2H-pyrazol-3-yl)-quinazolin-2-ylamine] | 300 to 1000 | > 20 |
| CC(C)Oc1nc(N)nc2ccc(-c3cc4ccccc4o3)cc12 [Example 86, 6-Benzofuran-2-yl-4-isopropoxy-quinazolin-2-ylamine] | 300 to 1000 | > 20 |
| CNC(=O)c1ccc(-c2ccc3nc(N)nc(OC(C)C)c3c2)cc1 [Example 87, 4-(2-Amino-4-isopropoxy-quinazolin-6-yl)-N-methyl-benzamide] | 300 to 1000 | 10 to 20 |
| CC(C)Oc1nc(N)nc2ccc(-c3ccco3)cc12 [Example 88, 6-Furan-2-yl-4-isopropoxy-quinazolin-2-ylamine] | 1000 to 10000 | > 20 |
| CC(C)Oc1nc(N)nc2ccc(-c3ccsc3)cc12 [Example 89, 4-Isopropoxy-6-thiophen-3-yl-quinazolin-2-ylamine] | 300 to 1000 | 10 to 20 |
| CC(C)Oc1nc(N)nc2ccc(-c3cccnc3)cc12 [Example 90, 4-Isopropoxy-6-pyridin-3-yl-quinazolin-2-ylamine] | 300 to 1000 | > 20 |
| CC(C)Oc1nc(N)nc2ccc(-c3ccc(F)c(F)c3)cc12 [Example 91, 6-(3,4-Difluoro-phenyl)-4-isopropoxy-quinazolin-2-ylamine] | 300 to 1000 | 10 to 20 |
| CC(C)Oc1nc(N)nc2ccc(-c3ccncc3)cc12 [Example 92, 4-Isopropoxy-6-pyridin-4-yl-quinazolin-2-ylamine] | 300 to 1000 | 10 to 20 |
| CC(C)Oc1nc(N)nc2ccc(-c3cccc(C#N)c3)cc12 [Example 93, 3-(2-Amino-4-isopropoxy-quinazolin-6-yl)-benzonitrile] | 300 to 1000 | 10 to 20 |
| CC(C)Oc1nc(N)nc2ccc(-c3cc(F)cc(F)c3)cc12 [Example 94, 6-(3,5-Difluoro-phenyl)-4-isopropoxy-quinazolin-2-ylamine] | 1000 to 10000 | > 20 |
| CC(C)Oc1nc(N)nc2ccc(-c3ccc(OC(F)(F)F)cc3)cc12 [Example 95, 4-Isopropoxy-6-(4-trifluoromethoxy-phenyl)-quinazolin-2-ylamine] | 1000 to 10000 | > 20 |
| CC(C)Oc1nc(N)nc2ccc(-c3ccc(N)cc3)cc12 [Example 96, 6-(4-Amino-phenyl)-4-isopropoxy-quinazolin-2-ylamine] | 300 to 1000 | > 20 |
| CC(C)Oc1nc(N)nc2ccc(-c3ccc(F)c(F)c3F)cc12 [Example 97, 4-Isopropoxy-6-(2,3,4-trifluoro-phenyl)-quinazolin-2-ylamine] | 300 to 1000 | > 20 |

| Compound | EC50 (HCV replicon) [nM] | CC50 at 3 days [1] [µM] |
| --- | --- | --- |
| CC(C)Oc1nc(N)nc2ccc(-c3ccccc3OCc3ccccc3)cc12 [Example 98, 6-(2-Benzyloxy-phenyl)-4-isopropoxy-quinazolin-2-ylamine] | 1000 to 10000 | < 10 |
| CC(C)Oc1nc(N)nc2ccc(-c3ccc(C#N)cc3)cc12 [Example 99, 4-(2-Amino-4-isopropoxy-quinazolin-6-yl)-benzonitrile] | 300 to 1000 | > 20 |
| CC(C)Oc1nc(N)nc2ccc(-c3ccc(O)cc3)cc12 [Example 100, 4-(2-Amino-4-isopropoxy-quinazolin-6-yl)-phenol] | < 300 | 10 to 20 |
| CC(C)Oc1nc(N)nc2ccc(-c3cnc4ccccc4c3)cc12 [Example 101, 4-Isopropoxy-6-quinolin-3-yl-quinazolin-2-ylamine] | 1000 to 10000 | 10 to 20 |
| Nc1nc(OCC2CCC2)c2cc(-c3ccc(F)cc3F)ccc2n1 [Example 102, 4-Cyclobutylmethoxy-6-(2,4-difluoro-phenyl)-quinazolin-2-ylamine] | 1000 to 10000 | < 10 |
| Nc1nc(OCC2CCC2)c2cc(-c3ccc(F)cc3)ccc2n1 [Example 103, 4-Cyclobutylmethoxy-6-(4-fluoro-phenyl)-quinazolin-2-ylamine] | 1000 to 10000 | 10 to 20 |
| Nc1nc(OCC2CCC2)c2cc(-c3cccc(F)c3F)ccc2n1 [Example 104, 4-Cyclobutylmethoxy-6-(2,3-difluoro-phenyl)-quinazolin-2-ylamine] | 1000 to 10000 | > 20 |
| Cc1ccccc1-c1ccc2nc(N)nc(OCC3CCC3)c2c1 [Example 105, 4-Cyclobutylmethoxy-6-o-tolyl-quinazolin-2-ylamine] | 1000 to 10000 | 10 to 20 |
| Nc1nc(OCC2CCC2)c2cc(-c3cccc(C(F)(F)F)c3)ccc2n1 [Example 106, 4-Cyclobutylmethoxy-6-(3-trifluoromethyl-phenyl)-quinazolin-2-ylamine] | 1000 to 10000 | 10 to 20 |
| Cc1ccc(-c2ccc3nc(N)nc(OCC4CCC4)c3c2)cc1 [Example 107, 4-Cyclobutylmethoxy-6-p-tolyl-quinazolin-2-ylamine] | 1000 to 10000 | > 20 |
| Nc1nc(OCC2CCC2)c2cc(-c3ccc(Cl)cc3Cl)ccc2n1 [Example 108, 4-Cyclobutylmethoxy-6-(2,4-dichloro-phenyl)-quinazolin-2-ylamine] | 1000 to 10000 | > 20 |
| CCOc1ccc(-c2ccc3nc(N)nc(OCC4CCC4)c3c2)cc1 [Example 109, 4-Cyclobutylmethoxy-6-(4-ethoxy-phenyl)-quinazolin-2-ylamine] | 1000 to 10000 | > 20 |
| Nc1nc(OCC2CCC2)c2cc(-c3ccc(F)cc3Cl)ccc2n1 [Example 110, 4-Cyclobutylmethoxy-6-(2-chloro-4-fluoro-phenyl)-quinazolin-2-ylamine] | 1000 to 10000 | 10 to 20 |
| Nc1nc(OCC2CCC2)c2cc(-c3ccoc3)ccc2n1 [Example 111, 4-Cyclobutylmethoxy-6-furan-3-yl-quinazolin-2-ylamine] | 300 to 1000 | 10 to 20 |
| Nc1nc(OCC2CCC2)c2cc(-c3ccc(F)c(Cl)c3)ccc2n1 [Example 112, 4-Cyclobutylmethoxy-6-(3-chloro-4-fluoro-phenyl)-quinazolin-2-ylamine] | 1000 to 10000 | > 20 |
| Nc1nc(OCC2CCC2)c2cc(-c3ccn[nH]3)ccc2n1 [Example 113, 4-Cyclobutylmethoxy-6-(2H-pyrazol-3-yl)-quinazolin-2-ylamine] | 300 to 1000 | 10 to 20 |
| Nc1nc(OCC2CCC2)c2cc(-c3cc4ccccc4o3)ccc2n1 [Example 114, 6-Benzofuran-2-yl-4-cyclobutylmethoxy-quinazolin-2-ylamine] | 1000 to 10000 | 10 to 20 |
| Nc1nc(OCC2CCC2)c2cc(-c3ccco3)ccc2n1 [Example 116, 4-Cyclobutylmethoxy-6-furan-2-yl-quinazolin-2-ylamine] | 1000 to 10000 | > 20 |
